Laboratory results: patent US11802110B2, “2-amino-N-(arylsulfinyl)-acetamide compounds as inhibitors of bacterial aminoacyl-tRNA synthetase” (priority 2016, dated 2023)
Values after ≈ are worked out from the molar mass of the structure shown. Like-named read-outs stand apart in the source and are kept apart here.

Key:
[1] = Human cell viability (cytotoxicity), ATP levels by CellTiter-Glo; assay type: cell-based; conditions: HepG2 cells (ATCC HB-8065), 24 hours incubation, read-out: IC50 (μg/mL), Cytotoxicity in HepG2 ATCC HB-8065 Cell Line
Procedure: Compounds were assessed for potential non-specific cytotoxic effects against a human hepatic cell line (HepG2 ATCC HB-8065). 96-well plates were seeded with HepG2 cells in concentration of 15,000 cells per well in 100 μL of MEM growth media completed with 1% NEAA and 1% sodium pyruvate. Border wells were filled with 100 μL of sterile PBS. Two days upon cells incubation, the compounds were added. Compound dilutions were prepared in 96-well V-bottom plate in pure DMSO. Growth media from 5 plates were aspirated and replaced with 98.7 μL of fresh growth media. 1.28 μL of compounds prepared in V-bottom plates were transferred with multichannel pipette into test plates (78.1× dilution). Final DMSO concentration was 1.28% per well. In control wells, 1.28 μL of DMSO was added in 98.7 μL of media. Compounds were tested in duplicates. Cells were incubated with compounds for 24 hours when cell viability was assessed by measuring ATP levels. ATP levels were measured by adding 50 μL of CellTiter-Glo reagent to each well and after 5 minutes of incubation luminescence was measured with SpectraMax i3. The potential effect of tested compounds on cell viability was determined by comparing the signal obtained in presence of different concentrations of the compounds with those obtained in the presence of DMSO only. The potential effects were then calculated and presented as IC50 values (μg/mL).

[2] = system: Klebsiella pneumoniae ATCC 700603; experiment: Study 4 - MIC by broth micro-dilution (CLSI); assay type: cell-based
Procedure: (§1) Minimum Inhibitory Concentrations (MICs) were determined by the broth micro-dilution method performed according to Clinical Laboratory Standards Institute guidelines. For testing, 5 mg/mL DMSO solutions were prepared by dissolving solids in DMSO. Standard antibiotics were prepared according to CLSI guidelines as 5 mg/mL stock solutions. Upon DMSO stock solutions preparation, the working solutions in MH media were prepared by adding 38.4 μL of stock solution to 1461.6 μL of MH media. Out of these working solutions 100 μL were transferred to wells in the third column of 96-well assay plates. Assay plates were previously filled with 50 μL of MH media in all wells except for the wells in the third column. Upon compounds and antibiotics addition, 50 μL was transferred from the third to the fourth column, then from the fourth to the fifth and so on.
(§2) MIC value was determined by visual inspection of bacterial growth within 96-well plates. The first column in which there was no visible growth of bacteria was determined as MIC value for compound or antibiotic tested in that particular row. ATCC strains were used as reference strains for which there is a determined value of MIC values for standard antibiotics. The assay is considered valid when MIC values for standard antibiotics are within CLSI designated range for ATCC strain tested.

[3] = system: Escherichia coli ATCC 25922; experiment: Study 4 - MIC by broth micro-dilution (CLSI); assay type: cell-based
Procedure: as §1, §2

[4] = system: Pseudomonas aeruginosa ATCC 27853; experiment: Study 4 - MIC by broth micro-dilution (CLSI); assay type: cell-based
Procedure: as §1, §2

[5] = system: Acinetobacter baumannii B1931 clinical isolate; experiment: Study 4 - MIC by broth micro-dilution (CLSI); assay type: cell-based
Procedure: as §1, §2

[6] = system: Enterobacter cloacae B1966 clinical isolate; experiment: Study 4 - MIC by broth micro-dilution (CLSI); assay type: cell-based
Procedure: as §1, §2

[7] = system: Haemophilus influenzae ATCC 49247; experiment: Study 4 - MIC by broth micro-dilution (CLSI); assay type: cell-based; conditions: G = H. influenzae ATCC 49247
Procedure: as §1, §2

E. Coli LeuRS = E. Coli LeuRS (Escherichia coli (strain K12), UniProt P07813); experiment: Study 2 - Isothermal titration calorimetry (ITC); assay type: binding; conditions: 25° C., pH 7.5, mean ± SD
Procedure: Escherichia coli BL21(DE3) cells transformed with plasmid pQE-60 containing the open-reading frame sequence of one targeted aaRS (i.e., LeuRS) were induced with 1 mM IPTG (isopropyl β-D-1-thiogalactopyranoside) for 3 hours at 37° C. Bacterial cells were harvested and lysed with 20 mM HEPES (4-(2-hydroxyethyl)-1-piperazinylethane-sulfonic acid) (pH 7.5), 300 mM NaCl, 15 mM imidazole and 1 mM DTT (1,4-dithio-D-threitol). The pathogenic aaRS was first purified by nickel affinity standard chromatography. The eluted protein was concentrated and then further purified by gel filtration using 50 mM HEPES (pH 7.5), 150 mM NaCl buffer.
ITC studies were carried out using a Microcal ITC200 instrument (GE Healthcare). Protein concentration was determined by spectrophotometry by measuring the absorbance at 280 nm using a theoretical molar extinction coefficient of 169,140 M^−1cm^−1. Ligand stock solutions were prepared in DMSO at 62.5 mM concentration. The titrations were performed at 25° C. with 7.5-100 μM E. Coli LeuRS in 50 mM HEPES, 150 mM NaCl, pH 7.5 buffer containing 1% DMSO (v/v). The protein solution in the 280 μL sample cell was titrated with the inhibitor solution (diluted to 75-3000 μM in the same buffer as the protein) using 1-2 μL injections every 120-140 seconds. All titrations were repeated at least two times. To correct for heats of dilution and mixing, the final baseline consisting of small peaks of identical size at the end of each experiment was subtracted. The experimental data were fitted to a theoretical titration curve (one site model) using MicroCal Origin 7 SR4 software.
Note that Compounds R-4.1 and S-4.1 (in Table 15, below) correspond to Compounds V-i and V-ii (in Tables 13 and 14, above), respectively.

[8] = system: Escherichia coli ATCC 25922 TolC deficient mutant (E. coli EFFLUX del); experiment: microbe, parasite or virus in culture; assay type: cell-based
Procedure: as §1, §2

[9] = Haemophilus influenzae, ATCC49247, read-out: MIC

Chain of E. Coli LeuRS (P07813 whole entry): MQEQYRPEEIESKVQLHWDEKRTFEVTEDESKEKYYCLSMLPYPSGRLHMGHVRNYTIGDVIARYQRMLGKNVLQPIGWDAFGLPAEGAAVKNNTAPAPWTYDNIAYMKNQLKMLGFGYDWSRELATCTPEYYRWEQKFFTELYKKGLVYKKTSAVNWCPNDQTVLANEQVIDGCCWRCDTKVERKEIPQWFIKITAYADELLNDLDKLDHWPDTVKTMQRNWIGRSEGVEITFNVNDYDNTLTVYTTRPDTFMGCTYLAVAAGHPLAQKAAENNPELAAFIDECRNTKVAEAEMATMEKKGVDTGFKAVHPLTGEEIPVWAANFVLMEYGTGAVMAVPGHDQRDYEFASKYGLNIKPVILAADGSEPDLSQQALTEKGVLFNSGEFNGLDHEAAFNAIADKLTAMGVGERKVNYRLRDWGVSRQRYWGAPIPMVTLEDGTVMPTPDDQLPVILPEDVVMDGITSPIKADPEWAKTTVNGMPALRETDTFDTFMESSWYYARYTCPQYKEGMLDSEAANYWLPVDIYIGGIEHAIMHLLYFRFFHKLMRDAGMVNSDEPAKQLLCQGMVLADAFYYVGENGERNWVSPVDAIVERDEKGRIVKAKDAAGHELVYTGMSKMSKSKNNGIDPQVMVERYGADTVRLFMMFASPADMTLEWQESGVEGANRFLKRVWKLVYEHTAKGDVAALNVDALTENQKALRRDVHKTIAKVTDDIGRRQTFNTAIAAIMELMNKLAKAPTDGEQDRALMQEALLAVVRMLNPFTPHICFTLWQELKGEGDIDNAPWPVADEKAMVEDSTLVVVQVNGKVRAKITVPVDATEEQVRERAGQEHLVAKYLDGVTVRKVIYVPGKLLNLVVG

Cc1ccc([S+]([O-])NC(=O)C(N)CC(C)C)c(F)c1 (stereo not shown) [4.38]
IC50 at 24 h [1]: > 64 µg/mL

CC(C)CC(N)C(=O)N[S+]([O-])c1cccc2ccccc12 (stereo not shown) [4.39]
MIC ([2]; Klebsiella pneumoniae, ATCC700603): 64 µg/mL (≈ 210 µM) | MIC ([3]; Escherichia coli, ATCC25922): 16 µg/mL (≈ 52.6 µM) | MIC ([4]; Pseudomonas aeruginosa, ATCC27853): > 64 µg/mL | MIC ([5]; Acinetobacter baumannii): 64 µg/mL (≈ 210 µM) | MIC ([6]; Enterobacter cloacae): 64 µg/mL (≈ 210 µM) | MIC [7, 9]: 8 µg/mL (≈ 26.3 µM) | IC50 at 24 h [1]: 46 µg/mL (≈ 151 µM) | Kd (E. Coli LeuRS): 12.8 ± 1.6 nM | ΔG (E. Coli LeuRS): -10.77 ± 0.08 kcal/mol | ΔH (E. Coli LeuRS): -9.29 ± 0.62 kcal/mol

CC(C)CC(N)C(=O)N[S+]([O-])c1ccc2ccccc2c1 (stereo not shown) [4.40]
IC50 at 24 h [1]: > 64 µg/mL

CC(C)CC(N)C(=O)N[S+]([O-])c1cccs1 (stereo not shown) [4.41]
IC50 at 24 h [1]: > 64 µg/mL

CC[C@H]1OC(=O)[C@H](C)[C@@H](O[C@H]2C[C@@](C)(OC)[C@@H](O)[C@H](C)O2)[C@H](C)[C@@H](O[C@@H]2O[C@H](C)C[C@H](N(C)C)[C@H]2O)[C@](C)(O)C[C@@H](C)CN(C)[C@H](C)[C@@H](O)[C@]1(C)O [Azithromycin]
MIC ([8]; Escherichia coli, ATCC25922): 0.5 µg/mL (≈ 0.668 µM) | MIC ([2]; Klebsiella pneumoniae, ATCC700603, D = KI. pneumoniae ATCC 700603, read-out: MIC): 32 µg/mL (≈ 42.7 µM) | MIC ([3]; Escherichia coli, ATCC25922, A = E. coli ATCC 25922, read-out: MIC): 4 µg/mL (≈ 5.34 µM) | MIC ([4]; Pseudomonas aeruginosa, ATCC27853, E = P. aeruginosa ATCC 27853, read-out: MIC): 32 µg/mL (≈ 42.7 µM) | MIC ([5]; Acinetobacter baumannii, F = A. baumannii B1931, read-out: MIC): 16 µg/mL (≈ 21.4 µM) | MIC ([6]; C = Enterobacter cloacae B1966, read-out: MIC): 16 µg/mL (≈ 21.4 µM) | MIC [7, 9]: 2 µg/mL (≈ 2.67 µM)

CC(C)(O/N=C(\C(=O)N[C@@H]1C(=O)N2C(C(=O)[O-])=C(C[n+]3ccccc3)CS[C@H]12)c1csc(N)n1)C(=O)O [Ceftazidime]
MIC ([8]; B = E. coli EFFLUX del): 0.25 µg/mL (≈ 0.457 µM) | MIC ([2]; D = KI. pneumoniae ATCC 700603): >64 µg/mL | MIC ([3]; A = E. coli ATCC 25922): 0.25 µg/mL (≈ 0.457 µM) | MIC ([4]; E = P. aeruginosa ATCC 27853): >64 µg/mL | MIC ([5]; F = A. baumannii B1931): 2 µg/mL (≈ 3.66 µM) | MIC ([6]; C = Enterobacter cloacae B1966): 0.5 µg/mL (≈ 0.915 µM) | MIC [7]: 16 µg/mL (≈ 29.3 µM)

C[C@@H](O)[C@H]1C(=O)N2C(C(=O)O)=C(S[C@@H]3CN[C@H](C(=O)N(C)C)C3)[C@H](C)[C@H]12 [Meropenem]
MIC ([8]; B = E. coli EFFLUX del): 0.5 µg/mL (≈ 1.3 µM) | MIC ([2]; D = KI. pneumoniae ATCC 700603): 0.5 µg/mL (≈ 1.3 µM) | MIC ([3]; A = E. coli ATCC 25922): 0.5 µg/mL (≈ 1.3 µM) | MIC ([4]; E = P. aeruginosa ATCC 27853): >64 µg/mL | MIC ([5]; F = A. baumannii B1931): 8 µg/mL (≈ 20.9 µM) | MIC ([6]; C = Enterobacter cloacae B1966): 0.5 µg/mL (≈ 1.3 µM) | MIC [7]: 4 µg/mL (≈ 10.4 µM)
